Measured values published in article PMC7113684 (Antiviral Research, 2017).
Where a name gives a salt, the structure may show the parent alone.

Legend:
SARS-CoV 3CL^pro = SARS-CoV 3CL^pro (Severe acute respiratory syndrome coronavirus, UniProt P0C6X7); settings: cited from earlier work
Huh-7 cells = settings: human
in vitro = settings: human

| Compound | activity against SARS-CoV 3CL^pro (SARS-CoV 3CL^pro) | decrease of viability of mock cells (Huh-7 cells) | CC50 (in vitro) |
| --- | --- | --- | --- |
| CCOC(=O)/C=C/[C@H](C[C@@H]1CCNC1=O)NC(=O)[C@@H](CC(=O)[C@@H](NC(=O)c1cc(C)on1)C(C)C)Cc1ccc(F)cc1 [AG7088] | inactive | – | – |
| Nc1ccn([C@@H]2O[C@H](CO)[C@@H](O)C2(F)F)c(=O)n1 [GEM, Gemcitabine hydrochloride] | – | ≥ 20% | > 100 µM |
